Experimental data: article PMC7826790, “Glucose 6-Phosphate Dehydrogenase from Trypanosomes: Selectivity for Steroids and Chemical Validation in Bloodstream Trypanosoma brucei” (Molecules, 2021)
Like-named read-outs stand apart in the source and are kept apart here.

Key:
T. cruzi G6PDH [1] = target: T1, T. cruzi G6PDH (Trypanosoma cruzi, UniProt Q4E0B2); assay: biochemical; assay type: biochemical
Experimental: (§1) E. coli Tuner (DE3) cells were transformed with the pET28a (+) and pHis constructs encoding for N-terminally hexa histidine-tagged TcG6PDHL and HsG6PDH, respectively, and grown overnight in LB medium with […] and […], respectively. […] Thereafter, the cultures were incubated for 20 h at 25 °C and 170 rpm. Cells were harvested by centrifugation (5000× g, 10 min, 4 °C), resuspended in buffer A (50 mM Tris, pH of 8.0, 500 mM NaCl and 5 mM MgCl2) containing a complete™ Protease Inhibitor Cocktail prepared as indicated by the provider (Sigma-Aldrich-Merck, Germany); afterwards, we added 1 mg/mL of lysozyme and incubated the cells for 1 h at 4 °C. […] Protein concentration was determined from the absorbance values at 280 nm and the corresponding theoretical absorbance coefficients.
All reactions were performed in 50 mM Tris (pH 7.5) with 5 mM MgCl2 and 250 mM NaCl in a final volume of 500 µL. […] For each enzyme, a control reaction in the presence of 1% (v/v) DMSO was run. Stock and working solutions of compounds were prepared in 100% (v/v) DMSO. […] The initial velocities were calculated from the first 45 s of the reaction and normalized to the corresponding enzyme control. All measurements were performed at least in triplicate using a Cary 50 Bio spectrophotometer (Agilent Technologies, Santa Clara, CA, USA) at RT. The initial rates were determined with the Origin Pro 8.0 software (OriginLab Corporation, Northampton, MA, USA), and the IC50 values were calculated by nonlinear regression using the GraphPad Prism 5.0 software (GraphPad Inc., San Diego, CA, USA).

human G6PDH [2] = target: T2, human G6PDH (Homo sapiens, UniProt P11413); assay: G6PDH enzymatic assay, recombinant human G6PDH (NADPH formation at 340 nm); assay type: biochemical, H. sapiens; conditions: for inhibition at 100 µM: read-out: % inhibition of human G6PDH; for inhibition of human G6PDH at highest concentration: 100 µM
T2 construct: hexa-histidine (His6) (N); made in house; host or cells: E. coli Tuner (DE3), pHis vector
Experimental: as §1, with “°C. Cells were further lysed by three cycles of sonication (45% amplitude, 2 s pulse on/off, for 1 min) using a macrotip in a Branson Digital Sonifier 450 (Marshall Scientific, Hampton, VA, USA) and debris was removed by centrifugation at 27,000× g for 45 min at 4 °C and filtrated through a 0.45 µm filter (Millipore-Merck, Darmstadt, Germany).” for “°C.”
G6PDH activity was determined at room temperature (RT) by monitoring NADPH (ε340 = 6220 M^−1 cm^−1) formation at 340 nm. All reactions were performed in 50 mM Tris (pH 7.5) with 5 mM MgCl2 and 250 mM NaCl in a final volume of 500 µL. The reactions were started by the addition of 700 µM NADP^+ and 6 mM G6P for TcG6PDH or by the addition of 250 µM NADP^+ and 1 mM G6P for the human enzyme. For each enzyme, a control reaction in the presence of 1% (v/v) DMSO was run. Stock and working solutions of compounds were prepared in 100% (v/v) DMSO. […] The initial velocities were calculated from the first 45 s of the reaction and normalized to the corresponding enzyme control. All measurements were performed at least in triplicate using a Cary 50 Bio spectrophotometer (Agilent Technologies, Santa Clara, CA, USA) at RT. The initial rates were determined with the Origin Pro 8.0 software (OriginLab Corporation, Northampton, MA, USA), and the IC50 values were calculated by nonlinear regression using the GraphPad Prism 5.0 software (GraphPad Inc., San Diego, CA, USA).

[3] = system: Bloodstream T. b. brucei (strain 427- cell line 514-1313); assay: Cell viability of bloodstream T. b. brucei (bioluminescent assay); assay type: cell-based, Trypanosoma brucei brucei; conditions: for EC50: 24 h incubation, read-out: EC50 T. brucei Bloodstream Form; for Selectivity Index (CC50 for murine macrophages/EC50 for T. brucei): DHEA: Hek293T CC50, Conessine: L6 CC50
Experimental: Parasite viability was performed as described in [72]. […] Thereafter, 200 µL from each well were transferred to a 96-well black plate and incubated with 20 µL of a solution containing: 1.5 mg/mL luciferin in PBS glucose 1% (w/v) and Triton X-100.

[4] = Cytotoxicity to murine macrophages (WST-1); assay type: cell-based; conditions: mouse, J774 murine macrophage cells, read-out: CC50 Murine Macrophage (Cell Line J774)
Experimental: (§2) Cell viability was assessed using the WST-1 reagent.
(§3) EC50 values were obtained from the corresponding concentration/response plots fitted to a sigmoidal Hill equation or extrapolated from nonlinear fitting equations.

[5] = system: T. cruzi epimastigotes (strain DM28); assay: Cell viability of T. cruzi epimastigotes (propidium iodide, flow cytometry); conditions: 72 h; for cytotoxicity at 50 µM: read-out: % Cytotoxicity (50 µM) T. Cruzi Epimastigote Form, 50 µM, 72 h
Experimental: T. cruzi epimastigotes (strain DM28) were grown at 28 °C in LIT medium supplemented with 10% (v/v) Fetal Bovine Serum (FBS; GIBCO®), 7.5 mM hemin and antibiotics (penicillin 10 U/mL– streptomycin 10 µg/mL). […] Thereafter, 200 µL from each well were transferred to individual cytometer tubes.
EC50 values were obtained from the corresponding concentration/response plots fitted to a sigmoidal Hill equation or extrapolated from nonlinear fitting equations. The errors were calculated using error propagations and are expressed as S.D. estimated as σ^(n−1).

T. cruzi G6PDH [6] = target: T1, T. cruzi G6PDH; conditions: read-out: IC50 T. cruzi G6PDH, cited from earlier work
human G6PDH [7] = target: T2, human G6PDH; design: method as in PMID 22506561; conditions: read-out: IC50 H. sapiens G6PDH; cited from earlier work
[8] = system: Bloodstream T. b. brucei (strain 427- cell line 514-1313); design: method as in PMID 28684718; conditions: read-out: EC50 T. brucei Bloodstream Form, cited from earlier work
Hek293T = conditions: read-out: CC50 against Hek293T; printed in the macrophage column; cited from earlier work
L. mexicana G6PDH = conditions: cited from earlier work
[9] = system: G6PDH in T. cruzi strain CL Brenner epimastigotes; conditions: 24 h
[10] = system: Bloodstream T. b. brucei expressing the redox biosensor hGrxroGFP2; assay: Redox reporter assay (hGrx1-roGFP2 biosensor, flow cytometry); assay type: cell-based, Trypanosoma brucei brucei
Experimental: Bloodstream T. b. brucei expressing the redox biosensor hGrxroGFP2 was grown as described elsewhere. […] Next, 50 µL from each well were transferred to a 96-well plate, containing 100 µL of sterile PBS with glucose 1% (w/v). […] GFP fluorescence (filter λem = 530/40 nm) was only analyzed for viable cells (PI negative). The data were processed and analyzed with the C6Accuri software. Samples were analyzed in triplicate and the error is expressed as S.D.

[11] = system: mammalian L6 cell line from rat skeletal myoblasts; design: method as in PMID 28684718; conditions: printed in the macrophage column; read-out: CC50 against mammalian L6 cell line; cited from earlier work
[12] = system: Murine macrophages (cell line J774); assay: Cytotoxicity to murine macrophages (WST-1); assay type: cell-based; conditions: 24 h, read-out: CC50 Murine Macrophage (Cell Line J774)
Experimental: as §2, §3

[13] = recombinant human G6PDH, 250 µM NADP+, 1 mM G6P, RT, read-out: IC50 H. sapiens G6PDH

T1 sequence (Q4E0B2 entry or part of it): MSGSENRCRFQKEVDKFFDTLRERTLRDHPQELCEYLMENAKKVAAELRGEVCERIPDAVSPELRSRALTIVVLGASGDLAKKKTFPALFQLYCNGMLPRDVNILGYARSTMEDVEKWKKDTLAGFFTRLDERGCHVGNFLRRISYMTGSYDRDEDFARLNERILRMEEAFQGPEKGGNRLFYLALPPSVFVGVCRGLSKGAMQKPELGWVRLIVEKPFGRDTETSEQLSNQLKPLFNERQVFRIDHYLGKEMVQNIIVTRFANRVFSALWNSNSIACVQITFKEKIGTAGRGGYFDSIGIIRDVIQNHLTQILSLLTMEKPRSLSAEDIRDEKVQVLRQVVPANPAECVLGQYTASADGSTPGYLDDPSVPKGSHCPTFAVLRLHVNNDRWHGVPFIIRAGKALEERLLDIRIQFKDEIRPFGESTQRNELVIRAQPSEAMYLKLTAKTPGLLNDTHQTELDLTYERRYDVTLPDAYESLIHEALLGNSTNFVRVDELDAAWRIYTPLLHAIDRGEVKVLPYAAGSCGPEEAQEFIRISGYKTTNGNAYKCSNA
T2 sequence (P11413 whole entry): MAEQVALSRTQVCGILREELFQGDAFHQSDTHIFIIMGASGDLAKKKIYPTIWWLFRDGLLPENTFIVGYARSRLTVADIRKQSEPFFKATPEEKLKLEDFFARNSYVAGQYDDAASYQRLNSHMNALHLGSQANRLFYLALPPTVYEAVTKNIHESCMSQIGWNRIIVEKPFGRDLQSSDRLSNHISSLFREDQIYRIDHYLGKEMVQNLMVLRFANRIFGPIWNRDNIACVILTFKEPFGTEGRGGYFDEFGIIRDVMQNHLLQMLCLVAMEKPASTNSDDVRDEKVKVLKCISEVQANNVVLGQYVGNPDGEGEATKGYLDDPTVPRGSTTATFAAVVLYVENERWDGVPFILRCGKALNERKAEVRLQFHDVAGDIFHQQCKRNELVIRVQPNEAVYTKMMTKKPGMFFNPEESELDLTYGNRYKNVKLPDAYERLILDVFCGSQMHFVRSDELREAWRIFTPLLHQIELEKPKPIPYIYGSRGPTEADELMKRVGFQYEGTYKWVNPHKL

SMILES: CC(=O)O[C@H]1CC[C@@]2(C)C(=CC[C@@H]3[C@@H]2CC[C@]2(C)C(=O)[C@H](Br)C[C@@H]32)C1 [Compound 5]
- IC50 (T. cruzi G6PDH [1]): 0.079 ± 0.01 µM
- IC50 (human G6PDH [2]): > 100 µM
- inhibition at 100 µM (human G6PDH [2]): 0%
- EC50 ([3]; Trypanosoma brucei, 24 h): 18 ± 3 µM
- CC50 at 24 h [4]: 39 ± 3 µM
- cytotoxicity at 50 µM ([5]; Trypanosoma cruzi): 30.9 ± 2.5%

SMILES: C[C@]12CC[C@H](O)CC1=CC[C@@H]1[C@@H]2CC[C@]2(C)C(=O)CC[C@@H]12 [DHEA, dehydroepiandrosterone]
- IC50 (T. cruzi G6PDH [6]; TcG6PDH): 21.5 ± 0.5 µM
- IC50 (human G6PDH [7]): ~10 µM
- EC50 ([8]; footnote c): 43.8 ± 2 µM
- CC50 (Hek293T): 25 ± 13 µM
- inhibition of L. mexicana G6PDH (L. mexicana G6PDH): refractory

SMILES: CC(=O)O[C@H]1CC[C@@]2(C)[C@@H](CC[C@@H]3[C@@H]2CC[C@]2(C)C(=O)[C@H](Br)C[C@@H]32)C1 [Compound 2]
- IC50 (T. cruzi G6PDH [1]): 0.11 ± 0.02 µM
- IC50 (human G6PDH [2]): > 100 µM
- inhibition at 100 µM (human G6PDH [2]): 0%
- EC50 ([3]; Trypanosoma brucei, 24 h): 5.3 ± 0.4 µM
- CC50 at 24 h [4]: 42 ± 1 µM
- cytotoxicity at 50 µM ([5]; Trypanosoma cruzi): 64 ± 4.1%

SMILES: CC1CS(=O)(=O)CCN1/N=C/c1ccc([N+](=O)[O-])o1 (stereo not shown) [Nifurtimox, reference compound]
- Selectivity Index (CC50 for murine macrophages/EC50 for T. brucei) [3]: 23.3
- EC50 ([3]; Trypanosoma brucei, 24 h): 6 ± 0.4 µM
- CC50 at 24 h [4]: 140 ± 2 µM
- cytotoxicity at 24 µM ([5]; Trypanosoma cruzi, read-out: % Cytotoxicity T. Cruzi Epimastigote Form, at 24 µM, 72 h): 46 ± 1.9%

SMILES: C[C@]12CC[C@H](O)C[C@@H]1CC[C@@H]1[C@@H]2CC[C@]2(C)C(=O)CC[C@@H]12 [EA, Epiandrosterone]
- G6PDH specific activity in cell extracts ([9]; 25 μM EA): 0.12 U/mg
- G6PDH specific activity in cell extracts ([9]; 100 μM EA): 0.09 U/mg
- IC50 (T. cruzi G6PDH [6]; recombinant TcG6PDH): 3 ± 0.4 µM
- IC50 (human G6PDH [7]): ~10 µM
- EC50 ([8]; footnote c): 36.5 ± 3.6 µM
- inhibition of L. mexicana G6PDH (L. mexicana G6PDH): refractory

SMILES: C[C@]12CC[C@H](O)CC1=CC[C@@H]1[C@@H]2CC[C@]2(C)C(=O)[C@H](Br)C[C@@H]12 [Compound 4]
- IC50 (human G6PDH [2]; [13]): 48 ± 2.6 µM
- EC50 ([3]; Trypanosoma brucei, 24 h): 7.5 ± 0.3 µM
- CC50 at 24 h [4]: 19 ± 3 µM
- cytotoxicity at 50 µM ([5]; Trypanosoma cruzi): 6.4 ± 1.6%

SMILES: CN(C)C(=O)/N=N/C(=O)N(C)C [diamide]
- biosensor oxidation ([10]; 250 µM, 20 min): 54%

SMILES: C[C@]12CC[C@H](O)C[C@@H]1CC[C@@H]1[C@@H]2CC[C@]2(C)C(=O)[C@H](Br)C[C@@H]12 [Compound 1, 16α-bromo-epiandrosterone]
- EC50 ([3]; Trypanosoma brucei, 24 h): 1.9 ± 0.2 µM
- CC50 at 24 h [4]: 8.8 ± 1 µM
- % Cytotoxicity (50 µM) T. Cruzi Epimastigote Form [5]: 14.5 ± 5.3%
- cytotoxicity at 50 µM ([5]; Trypanosoma cruzi): 15%

SMILES: C[C@H]1[C@H]2CC[C@H]3[C@@H]4CC=C5C[C@@H](N(C)C)CC[C@]5(C)[C@H]4CC[C@]23CN1C [Conessine, reference compound]
- inhibition of T. cruzi G6PDH at highest concentration (T. cruzi G6PDH [1]; 100 µM): did not inhibit
- IC50 (T. cruzi G6PDH [1]; recombinant TcG6PDH, 700 µM NADP+, 6 mM G6P, RT, read-out: IC50 T. cruzi G6PDH): > 100 µM
- inhibition of human G6PDH at highest concentration (human G6PDH [2]): did not inhibit
- IC50 (human G6PDH [2]; [13]): > 100 µM
- Selectivity Index (CC50 for murine macrophages/EC50 for T. brucei) [3]: 145.7
- induction of oxidative stress in bloodstream trypanosomes [10]: did not induce oxidative stress
- EC50 ([8]; footnote e): 0.42 ± 0.01 µM
- CC50 [11]: 61.2 µM

SMILES: CC(=O)O[C@H]1CC[C@@]2(C)C(=CC[C@@H]3[C@@H]2CC[C@]2(C)C(=O)[C@@H](Br)C[C@@H]32)C1 [Compound 6]
- IC50 (T. cruzi G6PDH [1]): > 50 µM
- IC50 (human G6PDH [2]): > 100 µM
- inhibition of human G6PDH at highest concentration (human G6PDH [2]): inactive
- EC50 ([3]; Trypanosoma brucei, 24 h): 5.3 ± 0.5 µM
- CC50 at 24 h [4]: 4.5 ± 0.4 µM
- % Cytotoxicity (50 µM) T. Cruzi Epimastigote Form [5]: 76.2 ± 0.8%
- cytotoxicity at 50 µM ([5]; Trypanosoma cruzi): 76%

SMILES: C[C@]12CC[C@H](O)CC1=CC[C@@H]1[C@@H]2CC[C@]2(C)C(=O)C(O)C[C@@H]12 (stereo partly shown) [Compound 7]
- EC50 [3]: > 24 µM
- EC50 ([3]; Trypanosoma brucei, 24 h): 24 to 44 µM
- CC50 at 24 h [4]: > 24 µM
- IC50 (human G6PDH [7]): 15.8 ± 3.3 µM
- cytotoxicity at 50 µM ([5]; Trypanosoma cruzi): 3.9 ± 0.7%

SMILES: CC(=O)O[C@H]1CC[C@@]2(C)[C@@H](CC[C@@H]3[C@@H]2CC[C@]2(C)C(=O)[C@@H](Br)C[C@@H]32)C1 [Compound 3]
- IC50 (T. cruzi G6PDH [1]): 1.5 ± 0.2 µM
- IC50 (human G6PDH [2]): > 100 µM
- inhibition of human G6PDH at highest concentration (human G6PDH [2]): inactive
- EC50 ([3]; Trypanosoma brucei, 24 h): 4.8 ± 0.5 µM
- CC50 at 24 h [4]: 0.96 µM
- CC50 [12]: 1 ± 0.1 µM
- % Cytotoxicity (50 µM) T. Cruzi Epimastigote Form [5]: 73.9 ± 3.4%
- cytotoxicity at 50 µM ([5]; Trypanosoma cruzi): 74%
